Here are results for 13 molecules from PubChem BioAssay AID743111 (Vanderbilt Specialized Chemistry Center, 2013).

Calls of active or inactive are those of the source.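 The calls were made as follows: active = response above 60% of the acetylcholine maximum at the M5 muscarinic receptor, read as positive allosteric modulation; inactive = the rest.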

For the assay, the target named is Muscarinic acetylcholine receptor M5 (Rattus norvegicus) (UniProt P08911). Put plainly: rat M5 receptor positive allosteric modulators, dose response, selectivity assay for M5 PAM project, cell-based, rat ortholog, CHO-K1, calcium flux, ACh EC20 (AID 743111). Conditions: CHO-K1 rat M5, Fluo-4 calcium flux; for % ACh max response: at 30 µM (top of the series). (Calcium assays in cells follow changes in intracellular calcium, usually with a dye or a luminescent sensor.)
Muscarinic acetylcholine receptor M5 (Rattus norvegicus), sequence (P08911 whole entry, looked up): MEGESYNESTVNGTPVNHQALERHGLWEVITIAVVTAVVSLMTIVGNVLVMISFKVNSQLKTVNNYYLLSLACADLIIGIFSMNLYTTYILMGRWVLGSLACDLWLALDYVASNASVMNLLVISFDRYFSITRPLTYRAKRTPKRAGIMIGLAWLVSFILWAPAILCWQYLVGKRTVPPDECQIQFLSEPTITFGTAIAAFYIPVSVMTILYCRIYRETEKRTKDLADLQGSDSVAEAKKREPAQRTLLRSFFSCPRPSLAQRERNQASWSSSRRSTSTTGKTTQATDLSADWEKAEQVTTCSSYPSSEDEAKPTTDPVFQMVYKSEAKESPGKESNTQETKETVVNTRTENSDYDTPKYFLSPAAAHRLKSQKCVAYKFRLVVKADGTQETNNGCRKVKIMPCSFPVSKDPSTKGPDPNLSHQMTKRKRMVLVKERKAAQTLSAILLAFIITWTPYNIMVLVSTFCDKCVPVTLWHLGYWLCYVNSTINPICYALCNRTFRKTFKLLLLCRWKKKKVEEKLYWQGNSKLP

For the molecule `CCN(C(=O)C1CCN(S(=O)(=O)c2ccc3cn[nH]c3c2)CC1)[C@H](C)c1ccccc1`, the EC50 (usually the concentration that produces a half-maximal response) is 860 nM.

In the case of `CCN(Cc1ccccc1)C(=O)C1CCN(S(=O)(=O)c2ccc3cn[nH]c3c2)CC1`, the EC50 is 1950 nM. On to `CCN(Cc1ccccc1C(F)(F)F)C(=O)C1CCN(S(=O)(=O)c2ccc3[nH]ncc3c2)CC1`, for which the EC50 is 540 nM.

For the molecule `CCN(C(=O)C1CCN(S(=O)(=O)c2ccc3[nH]ncc3c2)CC1)[C@H](C)c1ccccc1`, the EC50 was 640 nM. `CCN(C(=O)C1CCN(S(=O)(=O)c2ccc(-n3cccn3)cc2)CC1)[C@H](C)c1ccccc1`: the EC50 is 1200 nM. Turning to `CCN(Cc1ccccc1)C(=O)C1CCN(S(=O)(=O)c2ccc(OC)cc2)CC1`, the “% ACh max response” value was “inactive”.

With `CCN(C(=O)C1CCN(S(=O)(=O)c2ccc(OC)cc2)CC1)[C@H](C)c1ccccc1`, the concentration giving a half-maximal response (EC50) is 1570 nM.

Consider `CCN(Cc1ccccc1C(F)(F)F)C(=O)C1CCN(S(=O)(=O)c2ccc3cn[nH]c3c2)CC1`, for which the 50% effective concentration (EC50) was 1200 nM. Same read-out and setting: under `CCN(Cc1ccccc1Cl)C(=O)C1CCN(S(=O)(=O)c2ccc3[nH]ncc3c2)CC1` stands 300 nM. Still for that read-out and setting: under `CCCN(Cc1ccccc1C(F)(F)F)C(=O)C1CCN(S(=O)(=O)c2ccc3[nH]ncc3c2)CC1` stands 320 nM. Same read-out and setting: under `CCN(Cc1ccccc1C(F)(F)F)C(=O)C1(F)CCN(S(=O)(=O)c2ccc3[nH]ncc3c2)CC1` stands 710 nM. For `CCN(Cc1ccccc1)C(=O)C1CCN(S(=O)(=O)c2ccc3[nH]ncc3c2)CC1`, the EC50 is 1450 nM. `CCN(Cc1ccccc1)C(=O)C1CCN(S(=O)(=O)c2ccc3c(c2)OCCO3)CC1`: the “% ACh max response” value is “inactive”.
